The values that follow come from patent publication US11345711B2, “8,9-dihydroimidazo[1,2-a]pyrimido[5,4-e]pyrimidin-5(6H)-ones” (IMPACT THERAPEUTICS (SHANGHAI), INC, priority 2016, dated 2022).

A word on the Kd: it is a measure of binding affinity in units of concentration. Read a low Kd as a tighter complex. The term IC50 denotes the concentration that gives 50% inhibition.

Test [1] addresses T1, human Wee1 (amino acids M291 to K575) (Homo sapiens, UniProt P30291).
T1 construct: host or cells: E. coli BL21 infected with T7 phage
Nature of the test: Wee1 dissociation constant (Kd), KINOMEscan KdELECT competitive binding test. To be noted: 11-point 3-fold dilution. Here is the method:
Determination of Wee1 Dissociation Constant (Kd)
The Wee1 dissociation constants (Kd) which measures the affinity of tested compound to Wee 1 have been determined in the KINOMEscan™ KdELECT Service at DiscoveRx. KINOMEscan™ assay is based on competitive binding test. The affinity index Kd for Wee1 is calculated by qPCR measurement of the compounds that compete with the immobilized ligand and bind to the enzyme activity center.
Wee1 kinase-tagged T7 phage strains were prepared in an E. coli BL21 strain. E. coli was grown to log-phase and infected with T7 phage and incubated with shaking at 32° C. until lysis. The lysates were centrifuged and filtered to remove cell debris. A partial length construct of human Wee1 (amino acids M291 to K575 based on reference sequence NP_003381.1) was expressed on the T7 phage coat. A short DNA sequence, embedded within the T7 phage genome, was used as amplicon for detection via qPCR. […]
Test compounds were prepared as 111× stocks in 100% DMSO. Kas were determined using an 11-point 3-fold compound dilution series with three DMSO control points. […] The kinase concentration in the eluates was measured by qPCR. qPCR reactions were assembled by adding 2.5 μL of kinase eluate to 7.5 μL of qPCR master mix containing 0.15 μM amplicon primers and 0.15 μM amplicon probe. […]
The constants (KdS) were calculated with a standard dose-response curve using the Hill equation: […]

Another test addresses Wee1 (h) (Homo sapiens, UniProt P30291). Nature of the test: Wee1 kinase (h) detection method, [γ-33P]-ATP filter assay. To be noted: C 10 μm compound. The format is biochemical.
The next test concerns LoVo cells. Nature of the test: MTT based cell viability assay on LoVo cells. The following applies: Homo sapiens, LoVo, 72 h, 3 d, read-out: IC50, growth inhibition of LoVo cells. A digest of the protocol: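 Inhibition of LoVo proliferation was derived as IC50 from a sigmoidal dose-response fit of cell survival. Readout was MTT (0.5 mg/mL, 4 h) with absorbance at 552/630/690 nm, after 3-day treatment at 37 °C. Eight-point series from 10 μM to 0.01 μM, DMSO control, 1% DMSO final.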

The next test deals with NCI-H1299 cells. Nature of the test: MTT based cell viability assay on NCI-H1299 cells. The following applies: Homo sapiens, NCI-H1299, NCI-H1299 cells, read-out: IC50, growth inhibition of NCI-H1299 cells. A digest of the protocol: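 Viability read-out was MTT reduction (0.5 mg/mL, 4 h, absorbance 552/630/690 nm) after 3-day compound exposure at 37 °C of NCI-H1299 cells seeded at 1000 per well. Dilutions spanned 10 μM–0.01 μM in DMSO, final DMSO 1‰. Survival-versus-concentration curves were fitted sigmoidally to give IC50.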

T1 sequence (P30291 291-575): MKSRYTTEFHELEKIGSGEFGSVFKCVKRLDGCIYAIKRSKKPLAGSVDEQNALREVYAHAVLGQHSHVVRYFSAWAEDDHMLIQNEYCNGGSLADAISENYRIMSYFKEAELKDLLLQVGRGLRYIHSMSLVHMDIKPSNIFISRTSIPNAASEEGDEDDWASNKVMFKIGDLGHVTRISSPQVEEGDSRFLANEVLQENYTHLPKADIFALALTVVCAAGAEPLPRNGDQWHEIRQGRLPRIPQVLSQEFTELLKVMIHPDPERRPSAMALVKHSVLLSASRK
Sequence of Wee1 (h) (P30291 whole entry): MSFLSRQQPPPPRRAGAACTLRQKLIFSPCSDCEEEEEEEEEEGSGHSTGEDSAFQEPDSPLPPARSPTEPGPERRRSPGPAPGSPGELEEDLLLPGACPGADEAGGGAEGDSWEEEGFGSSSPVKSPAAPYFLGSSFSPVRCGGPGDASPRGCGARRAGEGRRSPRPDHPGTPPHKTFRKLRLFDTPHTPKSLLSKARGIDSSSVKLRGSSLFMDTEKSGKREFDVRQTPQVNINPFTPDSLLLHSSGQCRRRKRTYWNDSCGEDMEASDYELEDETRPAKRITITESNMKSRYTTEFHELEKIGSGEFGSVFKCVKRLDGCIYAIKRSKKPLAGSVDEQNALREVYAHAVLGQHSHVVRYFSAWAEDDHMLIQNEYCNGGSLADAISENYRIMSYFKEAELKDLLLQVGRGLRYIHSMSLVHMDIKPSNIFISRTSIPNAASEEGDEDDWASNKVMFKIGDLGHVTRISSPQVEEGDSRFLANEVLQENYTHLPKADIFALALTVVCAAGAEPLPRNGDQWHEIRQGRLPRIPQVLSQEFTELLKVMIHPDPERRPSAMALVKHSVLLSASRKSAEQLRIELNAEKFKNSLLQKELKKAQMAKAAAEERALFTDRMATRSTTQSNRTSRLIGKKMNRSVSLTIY

The compound `CN1CCN(c2ccc(Nc3ncc4c(n3)N3CCN=C3N(c3c(F)cccc3Cl)C4=O)cc2)CC1` [Example 2, 6-(2-Chloro-6-fluorophenyl)-2-((4-(4-methylpiperazin-1-yl)phenyl)amino)-8,9-dihydroimidazo[1,2-a]pyrimido[5,4-e]pyrimidin-5(6H)-one] gave a Kd in test [1] of 34 nM. Also, the “Inh. (%) of Wee1 kinase enzyme activity” value at Wee1 (h) turned out to be 95%. Also, the figures for the IC50 with LoVo cells and in the test with NCI-H1299 cells were 425 nM and 782 nM, respectively.
